Entries after “also recorded” stand apart in the source; their conditions may differ.

The values below come from patent US20260355330A1, “CELL PENETRATING PEPTIDES AND USES THEREOF” (VECTIOPEP OÜ, priority 2022, published 2026).

The subject of assay [1] is CHO-K1 cells. The experiment in a line: Comparison of reporter levels in cells post-transfection of pDNA or mRNA delivered by CPPs. It is filed as cell-based. Conditions: in words, FIG. 2. On the procedure:
FIG. 2: Comparison of reporter levels in cells post-transfection of pDNA or mRNA delivered by CPPs (P14, NF55 and NF71; relative light units normalised to total protein in the cell lysate (RLU/mg)). Naked mRNA and untreated cells (UT) were used as controls.
Adherent CHO-K1 cells were grown in Dulbecco's Modified Eagle's Medium (DMEM), which were supplemented with 0.1 mM non-essential amino acids, 1.0 mM sodium pyruvate, 100 U/ml penicillin, and […]. For complete media, 10% (final) fetal bovine serum (FBS) was added. Cells were maintained in a humidified incubator at 37 °C, 5% CO2. Cell viability and confluence was assessed daily and the cell density was reduced regularly. For cell counting, we used the CytoSMART cell counter accompanied by 0.4% trypan blue staining prior measurement. The multi-well plates with cell cultures used for experiments were incubated in a humidified incubator at 37 °C, 5% CO2.
For in vitro experiments 0.1 μg of nucleic acid (plasmid DNA (pDNA) or mRNA) was used per 96-well plate well. For CPP/NA complex formation, the diluted NA was mixed with CPP in water. Complexes were formed based on the theoretical charge ratio (CR) of positive charges from the peptide in excess to the negative charges from nucleic acid backbone, at charge ratio 3:1 with peptide in excess. […]
For reporter luminescence (expressed from firefly luciferase encoding mRNA or plasmid pDNA) assessment in adherent cell culture, 10,000 cells per 96-well plate well were seeded in 100 μl of media one day prior to transfection. […]
24 hours post-transfection, the media was aspirated, cells were washed with 1×PBS, and 30 μl of lysis buffer (0.1% Triton X100 in 1×PBS) was added. […] From the lysate, 20 μl was transferred to a black frame white well 96-well plate for luminescence measurement after addition of substrate luciferin (PerkinElmer) in buffer. The luminescence signal was detected with GloMax® 96 microplate luminometer equipped with GloMax® 1.9.2 software (Promega). […]

For assay [2] the following is noted: in words; previously reported; cited from earlier work.
In assay [3] the test system is CHO-K1 cells. The experiment in a line: Delivery of reporter mRNA with CPPs in cell culture (luciferase luminescence 24 h post-transfection). It is filed as cell-based. Conditions: for Average RLU/mg (reporter levels post-transfection of mRNA): firefly luciferase mRNA, 0.1 μg per well, charge ratio 3:1, serum containing media, 24 h, RLU normalised to total protein in lysate; for Efficiency of mRNA transfection/delivery: in words, FIG. 1 / Table 2, cell culture. The procedure, abridged:
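CHO-K1 cells (10,000/well) transfected in 10% FBS DMEM with 0.1 μg firefly luciferase mRNA complexed with CPP at 3:1 charge ratio (peptide excess). Luminescence read in lysates 24 h later, normalised to BCA total protein (RLU/mg).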

Assay [4] deals with liver, spleen, lung, kidney, heart and thymus of Balb/c mice. The experiment in a line: Biodistribution of reporter levels post-transfection of mRNA or pDNA with CPPs in vivo (tissue homogenate). The method, then:
FIG. 3: Biodistribution of reporter levels post-transfection of mRNA or pDNA with NFs or PFs CPPs in vivo. Reporter gene product levels were evaluated from the whole tissue homogenates collected post mortem. Results are shown as the fold change to mRNA or pDNA treated mice.
The transfection complexes (CPP/mRNA) were formed using 10 μg of mRNA mixed with each peptide at indicated charge ratios (CRs) in MQ water in a final volume of 100 μl. CRs were calculated theoretically and account for both the positive charges of the peptide and negative charges of the nucleic acid. The transfection complexes (CPP/mRNA and CPP/pDNA) were formed using 50 μg of mRNA mixed with each peptide at indicated charge ratios (CRs) in MQ water in a final volume of 168 μl. The complexes were incubated for 30 minutes at room temperature and then mixed with equal volume of 10% glucose (resulting in a final solution of 5% glucose in a total volume of 200 μl for 10 μg dose groups and 336 μl for 50 μg dose groups) and immediately injected intravenously via the tail vein.
The reporter gene (luciferase) expression levels were evaluated from the tissue homogenate post mortem 16-24 h after single injection.
In order to determine to which organs in vivo mRNAs may be delivered to with NickFect or PepFect CPPs, mRNA complexes with NF55, NF71 and PF14 were formed and injected through the tail vein of Balb/c mice (FIG. 3A). The organs were harvested 24 hours after the single injection and reporter signal was measured from whole tissue homogenates. The biodistribution of reporter levels was measured in liver, spleen, lung, kidney, heart and thymus.
In order to compare the biodistribution profiles between harvested organs when using either mRNA or pDNA as cargo, NF424 was used to transfect these 2 types of nucleic acids in vivo (FIG. 3B and Table 4).

The conditions of assay [5]: in words; previously reported; cited from earlier work. The source holds these as a separate data set.
For another assay, the system named is spleen of BALB/c mice. The experiment in a line: In vivo delivery of mRNA with CPPs - reporter levels in the spleen. Conditions: mRNA, tail vein injection, spleens harvested 16 hours after single injection, whole tissue homogenate. The procedure, abridged: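 CPP/mRNA complexes were formed at the indicated charge ratios in water for 30 min at room temperature, using 10 or 50 μg mRNA, then brought to 5% glucose. Complexes were injected intravenously via the tail vein into BALB/c mice. Spleens were harvested 16 h after the single injection, and luciferase (RLU) was measured in whole-tissue homogenate.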

Where [6] appears, read: mRNA delivery, i.v. tail vein, 24 h after single injection, FIG. 3: fold change to mRNA or pDNA treated mice.

With “NF71: SEQ ID NO: 14; HHYHHGO*ILLKALKALAKAIL; control/comparator construct”, the “Efficiency of mRNA transfection (parallel pDNA/mRNA comparison)” value in the assay on CHO-K1 cells [1] (mRNA cargo) is listed as “not effective tools for mRNA transfection/delivery; also recorded: not an efficient delivery vector for mRNA”. For the same substance, in the assay on CHO-K1 cells [1] (pDNA cargo), the “Efficiency of pDNA transfection (parallel pDNA/mRNA comparison)” value is recorded as “very efficient transfection reagents for pDNA delivery”. Further, in assay [2], the miRNA delivery efficiency entry was “very efficient for siRNA and miRNA delivery; also recorded: very efficient for siRNA and miRNA transfections; also recorded: the most efficient in vivo”. Also, in the assay with CHO-K1 cells [3], the “Average RLU/mg (reporter levels post-transfection of mRNA)” value is on record as 3 505 987 RLU/mg and the “Efficiency of mRNA transfection/delivery” value is “not efficient for mRNA delivery”. In addition, the “Organ distribution of mRNA delivery” value in assay [4] (in words, mRNA cargo) is given as “delivered mRNA mostly into the spleen, with very low transfection levels seen in other organs”. For the same substance, in assay [4] (setting [6]), the “Reporter level, Liver” value came to 8; the “Reporter level, Lung” value was determined as 6; the “Reporter level, Spleen” value came to 124. Moreover, the siRNA delivery efficiency entry in assay [5] is “very efficient for siRNA and miRNA delivery; also recorded: very efficient for siRNA and miRNA transfections; also recorded: the most efficient, even more efficient than NF55”.
For the substance “NF70: SEQ ID NO: 13; HHHHYHHGO*ILLKALKALAKAIL; control/comparator construct [reference compound]”, in the assay with spleen of BALB/c mice, the “Reporter levels in the spleen (RLU)” value is 8 000 RLU. Further, the miRNA delivery efficiency result in assay [2] was “very efficient for siRNA and miRNA delivery”. In addition, in the assay on CHO-K1 cells [3], the “Average RLU/mg (reporter levels post-transfection of mRNA)” value is 919 720 RLU/mg and the “Efficiency of mRNA transfection/delivery” value is listed as “not efficient for mRNA delivery”. Moreover, in assay [5], the siRNA delivery efficiency entry is “very efficient for siRNA and miRNA delivery; also recorded: the most efficient, even more efficient than NF55”.
